Values joined by “and” are separate entries in the source; they are usually repeats but may differ in a detail not shown here. Identical values can stand only once.
How the values were obtained:
Type in all cases: in vivo
[1] = test system: radish "Cherry Bell" Raphanus sativus L.; assay: Greenhouse foliar treatment of radish, root dry weight
Description: Plant responses to formulations of an alkyl-α-D-mannopyranose and an electron donating-aryl-α-D-mannopyranose were consistent with preferred binding tendencies to displace glucose from storage. Plants were maintained in automated greenhouses controlled for temperature, light and circulation. Environmental conditions during the course of the studies averaged 13:11 hour L:D photoperiod, 25°:20° C. day:night and 20% to 80% relative humidity. Sunlight was supplemented with electrical illumination to achieve photosynthetically active radiation levels ranging from 350 to 600 μmol photons·m^−2·s^−1 at the level of the phylloplane. Solutions for treated and control plants were applied within an hour, otherwise subjecting all plants to identical conditions consistent with good laboratory practices. Solutions applied to controls included nutrients and surfactants identical to the treatment solution, but without the active compound. General supplementation of foliar formulations included the following: 10-100 mM ammonium salt; 1-6 ppm manganese, Mn-EDTA; and 5-10 ppm calcium, Ca-EDTA. For example, foliar solutions of 0.3 mM p-aminophenylmannopyranoside, hereafter referred to as APM, were supplemented with 23 mM ammonium sulfate, (NH4)2SO4, 3 ppm Mn and 6 ppm Ca; and Nutrient Control contained 23 mM (NH4)2SO4, 3 ppm Mn and 6 ppm Ca. The foliar concentrations of Mn and Ca were higher than those specified previously because of the low volumes of foliar applications relative to hydroponic root immersion volumes, and they were particularly effective in combination with foliar applications of compounds because they supported high rates of productivity in the treated plants without phytotoxicity. Compounds for experimentation included the following: methyl-α-D-mannopyranoside (MeM), APM, and methyl-α-D-glucopyranoside (MeG). All foliar solutions were formulated with 1 gm/liter surfactant blend consisting of 0.5 gram DowCorning Q5211 dispersed into 1.5 grams BASF Pluronic L62. As a matter of course, untreated controls that foliar nutrients and wetting agents were not introducing artifacts. The standard volume for foliar application of experimental treatments was 200 liters/hectare. Identical volumes of foliar spray per tray of plant cultures were applied mechanically in a single pass. Controls were placed in the same location and given identical irrigation and handling as the treated plants. To compare the effects of treatments under tightly controlled conditions, plants were cultured, harvested, cleaned and weighed as per previously described methods. Treated plants were statistically analyzed in comparisons against controls. Each survey population held sufficient replicate sample numbers to make meaningful statistical analyses utilizing SPSS® software. Significance was determined at the 95% confidence interval (CI) of the difference. Counts of population numbers are denoted as “n” values. For experiments, radish “Cherry Bell” Raphanus sativus L., a root crop was planted and treated. […] Therefore, least concentrations were selected for statistical experimentation; and 200 l/ha foliar 1 mM MeM or 0.3 mM APM in nutrient-supplemented formulations were applied to 5 cm tall sprouts; while, Nutrient Controls were given foliar applications of identical solutions without the α-D-glycopyranosides; and no foliar solutions were applied to untreated controls which were otherwise identically cultivated and irrigated. For our quantification experiments, when improvements of root productivity over those of nutrient controls were visibly discernible 12 d after treatment, all populations of controls and treatments were harvested, and individual dry weights of treatment and control populations were analyzed.

[2] = test system: Radish seedlings; assay: Radish seedling assay, immersion in nutrient solution with α-mannosides
Description: Plants were cultured in research facilities and consistency of response to treatments was achieved by supplementation with chelated calcium and manganese. All plants were regularly given modified Hoagland water-culture nutrients. […] Controls were placed in the same location and all plants were given the same irrigation, fertilizers, and handling, but without the experimental compounds. Plants were matched to controls and treated within a week of emergence of cotyledon and true leaves. The performance of compounds was evaluated by comparing means of individual dry weights of shoots and roots. Statistics applied two-tailed Student's t-test with p-values significant within 95% confidence intervals. Counts of populations are “n” values and standard error is denoted “±SE.” Specialty chemicals included the following: tetramethyl-β-D-glucoside (TMG); tetraacetyl-D-glucopyranose (TAG); pentaacetyl-α-D-mannopyranose (MP); p-amino-phenyl-α-D-mannoside (APM); methyl-α-D-mannoside (MeM) and methylglucoside (MeG). MPG was synthesized. 2,3,4,6-tetra-O-acetyl-D-mannopyranose (αβ) was utilized. As required, MP and APM were dissolved in a lower aliphatic alcohol prior to dilution in aqueous media.
Assay—Radish seedlings were treated with α-mannosides after emergence of radicles. Seedlings were matched and transferred to Nutrient Control or treatment solutions. Assays were maintained under environmental conditions as follow: Photosynthetically active radiation 100 μEin·m^−2·sec^−1, diel cycle of 16:8 h light:dark, 26:26° C.

[3] = test system: radish (Raphanus sativus L., cultivar "Cherry Bell"); assay: Radish seed germination and seedling growth, nutrient omission media; settings: glycoside alone, no divalent cations
Description: Treatment of seeds and seedlings by aqueous solutions is exemplified by mannosides supplemented with soluble divalent cations in complete mannosides formulations. […] Benefits of such exemplary seed priming methods are as follows: Germination and early growth of radish (Raphanus sativus L., cultivar “Cherry Bell”) and Swiss Chard (Beta vulgaris subspecies cicla L., cultivar “Fordhook® Giant”) were tested for response to α-mannosides supplemented with Ca^2+ and/or Mn^2+. Rapid assays of radish seed germination and growth used hydroponic cultures with no solid medium; longer experiments with Swiss Chard used a 2-5 mm substratum of 700 μm diameter glass microbeads. Neutralization of glass microbeads may be undertaken with dilute mildly acidic solution titrated to pH 6; for example, with mineral acids such as hydrochloric acid, sulfuric acid, nitric acid, and the like; organic acids such as uronic, citric, malic, lactic, salicylic, ascorbic, succinic, oxaloacetic, ketoglutaric, fumaric acids, and amino acids, and the like; artificial biological buffering agents such as TRIS, BIS TRIS, MES, MOPS, HEPES, and the like; fertilizers; and most preferably, phosphates; and the most highly preferred compounds are combinations of compounds in a pH 6-buffer that provide major nutrients for plants, such as MAP with DKP or DAP with MKP; and the like. When test medium was added, the glass microbeads formed an even layer, drawing liquid to the surface by capillary action. Seeds were examined to exclude aberrantly large, small, or damaged seeds, and were placed on the surface of the substratum. For experiments using post-germination seedlings, seeds were germinated in deionized water prior to exposure to nutrient media. A seed with an emerged radicle >1 mm was recorded as germinated, and germinated seeds were counted daily, until 95% germination. There was no visible evidence of either desiccation or waterlogging effects. Glass microbeads were removed by immersion and agitation in water, or manually with fine forceps. Harvested plants were oven-dried to determine dry weight. Treatment and control solutions were prepared by dissolving nutrients in deionized ultrapure water.
Growth media were based on omission or inclusion of glycosides and targeted divalent cations. Triose is the abbreviation for α-1,3-α-1,6 mannotriose) and MEM is methyl-α-D-mannoside. Terminology used herein indicates the omission or inclusion of nutrients: 000=control medium with no glycoside, Ca^2+ or Mn^2+; MeMOO=medium with MeM, but no Ca^2+ or Mn^2+; MeMCaO=medium with MeM and Ca^2+, but no Mn^2+, OCaMn=medium with no MeM, but with Ca^2++Mn^2+; and so on. Similar terminology is used for media containing triose. Results cited are means±SE. […]

[4] = test system: Swiss Chard (Beta vulgaris subspecies cicla L., cultivar "Fordhook Giant"); assay: Swiss Chard germination and seedling growth on glass microbead substratum; settings: media containing 100 μM MeM
Description: Treatment of seeds and seedlings by aqueous solutions is exemplified by mannosides supplemented with soluble divalent cations in complete mannosides formulations. […] Benefits of such exemplary seed priming methods are as follows: Germination and early growth of radish (Raphanus sativus L., cultivar “Cherry Bell”) and Swiss Chard (Beta vulgaris subspecies cicla L., cultivar “Fordhook® Giant”) were tested for response to α-mannosides supplemented with Ca^2+ and/or Mn^2+. Rapid assays of radish seed germination and growth used hydroponic cultures with no solid medium; longer experiments with Swiss Chard used a 2-5 mm substratum of 700 μm diameter glass microbeads. […] A seed with an emerged radicle >1 mm was recorded as germinated, and germinated seeds were counted daily, until 95% germination. […]

## CO[C@H]1O[C@H](CO)[C@@H](O)[C@H](O)[C@@H]1O [MeM, methyl-α-D-mannopyranoside]
[1]; foliar 1 mM with nutrients
  root mean dry weight over the Nutrient Control: highly significant (n=72; p=0.001) increase
[1]; foliar 1 mM, 200 l/ha, harvest 12 d after treatment, n=72, p=0.001
  root weight increase over controls: 30%
[1]; foliar, radish
  active concentration applied for growth response: 1 mM
[2]; 25 μM, 48 h
  enhancement of mean dry weight over Nutrient Control: 12% and ~11%
  mean dry weight of whole plants: 10 mg
[2]; 50 μM, 48 h
  enhancement of mean dry weight over Nutrient Control: 11%
  mean dry weight of whole plants: 11 mg
[2]; 100 μM, 48 h
  mean dry weight of whole plants: 10.9 mg
[2]; 500 μM, 24 h
  visual comparison with Nutrient Control: enhanced pigmentation and general growth
[2]; 500 μM, 48 h
  enhancement of mean dry weight over Nutrient Control: 11%
  mean dry weight of whole plants: 10.3 mg
[2]; 48 h, 1 mM TAM, 100 μM MP, 25 μM to 500 μM MeM, 10 μM APM
  growth response compared to Nutrient Control (visual): advanced growth responses
[3]
  effect on plant growth / seedling yields without Ca2+ and Mn2+: no significant effect
[4]
  germination rates compared with media without the glycoside: consistently higher

— patent US11147219B2, “Methods and systems for growing plants using silicate-based substrates, cultivation of enhanced photosynthetic productivity and photosafening by utilization of exogenous glycopyranosides for endogenous glycopyranosyl-protein derivatives, and formulations, process and systems for the same” (Innovation Hammer, LLC, priority 2011, dated 2021)
